In patent US10301320B2, “Compositions and methods of modulating 15-PGDH activity” (CASE WESTERN RESERVE UNIVERSITY, priority 2012, dated 2019):
Entries after “also recorded” stand apart in the source; their conditions may differ. Where two headings read alike, the source gives them in different places.

Columns and labels:
[1] = target: T1, recombinant 15-PGDH protein (Homo sapiens (Human), UniProt P15428); assay: Inhibition of enzymatic activity of recombinant 15-PGDH in vitro; format: biochemical;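 further: activity of recombinant human 15-PGDH assayed in vitro using PGE2 as the substrate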
T1 sequence (P15428 whole entry): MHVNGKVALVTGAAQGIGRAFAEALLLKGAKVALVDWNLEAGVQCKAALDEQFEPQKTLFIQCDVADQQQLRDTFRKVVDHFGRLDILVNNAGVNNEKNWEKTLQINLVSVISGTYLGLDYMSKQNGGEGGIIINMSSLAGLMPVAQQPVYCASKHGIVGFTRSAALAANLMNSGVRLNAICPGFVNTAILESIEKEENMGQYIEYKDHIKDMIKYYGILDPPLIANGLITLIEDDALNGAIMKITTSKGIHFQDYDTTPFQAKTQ

A549 cells = assay: PGE2 levels in medium of IL1-beta stimulated A549 cells; format: cell-based; conditions: for Effect on PGE2 levels in medium, in words: IL1-beta stimulated A549 cells
[2] = tested on: 15-PGDH-luciferase fusion reporter in V9m, LS174T and V503 cell lines; assay: 15-PGDH-luciferase fusion gene reporter induction in three colon cancer cell lines (stated jointly); format: cell-based
[3] = tested on: LS174T reporter cell line expressing a 15-PGDH luciferase fusion construct; assay: 15-PGDH-luciferase fusion gene reporter induction, LS174T cell line; format: cell-based; conditions: Homo sapiens
Excerpt: (§1) These cell lines are Vaco-9m (V9m), LS174T, Vaco503 (V503). […] Value of 1.0 on the Y-axis is the basal level of reporter activity in cells treated with drug free DMSO vehicle.
(§2) This Example provides data on a group of structural analogues of SW033291. Data provided includes level of induction of a 15-PGDH-luciferase fusion gene reporter, recorded as % increased luciferase activity over basal level, in three colon cancer cell lines, V9m, V503, and LS174T, engineered to contain the reporter, and treated with either 2.5 uM or 7.5 uM compound (i.e., Values are recorded on a scale where 100 indicates of doubling of luciferase activity over baseline level).
(§3) FIGS. 27(A-C) show graphs that show the level of compound's activity in inducing the 15-PGDH-luciferase fusion reporter in three different test cell line backgrounds, V9m, LS174T, and V503. Each compound was tested at two concentrations, 2.5 uM, and 7.5 uM. Y-axis is luciferase activity.
(§4) Data provided include level of induction of a 15-PGDH-luciferase fusion gene reporter, recorded as % induction of luciferase activity over basal level, in three colon cancer cell lines, V9m, V503, and LS174T, engineered to contain the reporter, and treated with either 2.5 uM or 7.5 uM compound. […] Additionally, for selected compounds is recorded the decrease in PGE2 levels in the media of compound treated A549 cells that have been stimulated with IL-1 beta. Additionally recorded for selected compounds is the effect on A549 cell viability as measured by a CellTiter-Glo assay, and the effect of compounds on A549 cell colony formation.

[4] = tested on: Vaco503 reporter cell line expressing a 15-PGDH luciferase fusion construct; assay: 15-PGDH-luciferase fusion gene reporter induction, Vaco503 (V503) cell line; format: cell-based; conditions: read-out: V503-3H9-7 reporter activity, % ([…]), Table 18, […]
Excerpt: as §1, §2, §3, §4

[5] = tested on: V9m reporter cell line expressing a 15-PGDH luciferase fusion construct; assay: 15-PGDH-luciferase fusion gene reporter induction, V9m cell line; format: cell-based; conditions: […]; for V9M reporter activity ([…]): % increased luciferase activity over basal level
Excerpt: as §1, §2, §3, §4

[6] = tested on: 15-PGDH mRNA in colon cancer cell lines; assay: 15-PGDH mRNA levels by real-time PCR; format: cell-based; conditions: treated colon cancer cell lines, real-time PCR
Excerpt: In these studies parental cell lines (not containing the 15-PGDH-luciferase reporter) are employed.

[7] = target: T1, recombinant 15-PGDH protein; assay: Melting temperature shift of recombinant 15-PGDH (SYPRO Orange); format: binding; conditions: melting temperature shift
[8] = read-out: Enzyme inhibition % ([…]), recombinant 15-PGDH, […] compound, read-out: Enzyme inhibition % (2.5 μM)
[9] = read-out: Enzyme inhibition % ([…]), recombinant 15-PGDH, […] compound, read-out: Enzyme inhibition % (7.5 μM)

SMILES | inhibition at […] [1, 8] | inhibition at […] [1, 9] | Induction of 15-PGDH-luciferase reporter, in words [2] | Effect on PGE2 levels in medium, in words (A549 cells) | other results
COc1ccc(C)cc1N(CC(=O)Nc1cccnc1)S(=O)(=O)c1ccccc1 [526206-05-3] |  |  |  |  | inhibition at […] ([1]; read-out: Enzyme inhibition % ([…]), Table 18, […] compound, read-out: Enzyme inhibition % (2.5 μM)): 42%; inhibition at […] ([1]; read-out: Enzyme inhibition % ([…]), Table 18, […] compound, read-out: Enzyme inhibition % (7.5 μM)): 70.2%; activation at […] ([3]; read-out: Ls174T-SC1 reporter activity, % ([…]), Table 18, […], read-out: Ls174T-SC1 reporter activity, % (2.5μM)): 68.5%; activation at […] ([3]; read-out: Ls174T-SC1 reporter activity, % ([…]), Table 18, […], read-out: Ls174T-SC1 reporter activity, % (7.5 μM)): 146%; activation at […] ([4]; read-out: V503-3H9-7 reporter activity, % (2.5 μM)): 110%; activation at […] ([4]; read-out: V503-3H9-7 reporter activity, % (7.5 μM)): 198%; percent reporter induction over basal at […] ([5]; read-out: V9M-SC3 Reporter activity % ([…]), Table 18, read-out: V9M-SC3 Reporter activity % (7.5 μM)): 114%; activation at […] ([5]; read-out: V9M-SC3 Reporter activity ([…]) (%), Table 18, read-out: V9M-SC3 Reporter activity (2.5 μM) (%)): 23.1%
CCCC[S+]([O-])c1sc2nc(-c3nccs3)cc(-c3ccccc3)c2c1N (stereo not shown) [SW208066, 2-(butylsulfinyl)-4-phenyl-6-(thiazol-2-yl)thieno[2,3-b]pyridin-3-amine] |  |  |  |  | PGE2 levels in the medium, ranking (A549 cells; 100 nM drug, 15-PGDH inhibitors): highest levels of PGE2; V9M reporter activity ([…]) [5]: 111.63%; V9M reporter activity ([…]) ([5]; 100 = doubling): 122.72%
C[S+]([O-])c1sc2nc(-c3cccs3)cc(-c3ccccc3)c2c1N (stereo not shown) [SW208079, 2-(methylsulfinyl)-4-phenyl-6-(thiophen-2-yl)thieno[2,3-b]pyridin-3-amine] |  |  | marked loss of activity in inducing the cell line reporters |  | 
COc1ccc(OC)c(N(CC(=O)Nc2cccnc2)S(=O)(=O)c2ccccc2)c1 [SW054384] | 20.2% | 58.2% | increase luciferase activity | lower level of PGE2 produced; also recorded: show activity in lowering PGE2 | IC50 fold higher than that of SW033291 ([1]; FIG. 12): 10,000 fold; 15-PGDH mRNA levels [6]: do not in general alter 15-PGDH mRNA levels; Direct binding to recombinant 15-PGDH [7]: cannot be demonstrated to bind 15-PGDH
O=C(c1ccc2nc(-c3ccccc3)c(-c3ccccc3)nc2c1)N1CCCCC1 [SW145753] |  |  | increase luciferase activity | clear inhibition of 15-PGDH activity | 15-PGDH mRNA levels [6]: do not in general alter 15-PGDH mRNA levels

The next lines start with results.

inhibition at […] [1, 8] | inhibition at […] [1, 9] | SMILES | Induction of 15-PGDH-luciferase reporter, in words [2] | Effect on PGE2 levels in medium, in words (A549 cells) | other results
-7.08% | -0.86% | COc1ccc(S(=O)(=O)N(CC(=O)N2CCOCC2)c2cc(OC)ccc2OC)cc1 [SW207997] | activity equal to, or in some assays greater than, SW054384; also recorded: active in inducing the 15-PGDH-luciferase reporter |  | Inhibition of recombinant 15-PGDH, in words [1]: much less inhibition of enzymatic activity of 15-PGDH; also recorded: lesser inhibitory activity at high concentration; Reduction in levels of PGE2 in the medium, ranking (A549 cells; 100 nM drug, 15-PGDH activators): greatest reduction in levels of PGE2
23.8% | 42.5% | COc1ccc(OC)c(N(CC(=O)Nc2cccnc2)S(=O)(=O)c2ccc(Br)cc2)c1 [SW203737] | active in inducing 15-PGDH-luciferase reporter activity; also recorded: active in inducing the 15-PGDH-luciferase reporter | show activity in lowering PGE2 | 
4.19% | 7.26% | COc1ccc(OC)c(N(CC(=O)Nc2cc(C)no2)S(=O)(=O)c2ccccc2)c1 [SW203704] | active in inducing the 15-PGDH-luciferase reporter |  | 
